Measurements taken from publication PMC4757856 (Medchemcomm, 2015).

Experiments:
PfNMT = target: T1, PfNMT (Plasmodium falciparum, UniProt Q9U419); experiment: NMT enzyme inhibition assay; type: biochemical; details: for LipE: LipE = pKi (PfNMT) - clog P
T1 sequence (Q9U419 1-410): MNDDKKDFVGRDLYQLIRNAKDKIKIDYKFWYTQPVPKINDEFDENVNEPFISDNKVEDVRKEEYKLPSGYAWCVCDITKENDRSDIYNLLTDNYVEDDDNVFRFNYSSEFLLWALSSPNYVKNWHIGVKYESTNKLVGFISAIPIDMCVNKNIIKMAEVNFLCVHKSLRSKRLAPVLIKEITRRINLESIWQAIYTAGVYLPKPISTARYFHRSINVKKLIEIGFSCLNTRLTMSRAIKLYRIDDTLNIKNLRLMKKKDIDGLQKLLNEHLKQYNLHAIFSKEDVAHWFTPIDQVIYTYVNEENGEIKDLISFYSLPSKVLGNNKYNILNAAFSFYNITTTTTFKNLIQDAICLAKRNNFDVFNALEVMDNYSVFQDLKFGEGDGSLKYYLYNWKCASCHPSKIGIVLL

HepG2 cell line = experiment: HepG2 toxicity assay; type: cell-based, human; details: 48 hours, MTS

Compound	LipE (PfNMT)	LD50 (HepG2 cell line) [µM]	other results
c1ccc(Cc2noc(-c3cccnc3OC3CCNCC3)n2)cc1 [Compound 7]	–	–	fold improvement in enzyme affinity (PfNMT; PfNMT, 7 vs. 3): 10 fold
COc1cccc(Cc2noc(-c3ccccc3OC3CCNCC3)n2)c1 [Compound 18]	3.32	–	–
Cc1nn(C)c(C)c1Cc1noc(-c2cccnc2OC2CCNCC2)n1 [Compound 25]	–	>100	–
Cc1nn(C)c(C)c1Cc1noc(-c2cccnc2OC2CCN(C(C)C)CC2)n1 [Compound 28]	–	>100	–
c1cnc(OC2CCNCC2)c(-c2nc(Cc3cccc4ncccc34)no2)c1 [Compound 30]	5.63	–	–
